Legend:
[1] = system: multi-drug resistant ovarian carcinoma cell line SK-OV3; assay: Cell growth assay on SK-OV3 cells; assay type: cell-based, human
From the text: (§1) In these experiments, the following cell lines were used: CHOP-resistant NHL cell line G3, CHOP-sensitive NHL cell line CRL2631, the multi-drug resistant sarcoma cell line MES-SA-Dx5; multi-drug-resistant breast cancer cell line MDA-MB-231, multi-drug resistant ovarian carcinoma cell line SK-OV3, multi-drug resistant ovarian cancer cell line NCI/ADR-RES, drug-sensitive ovarian cancer cell line OVCAR-5, and multi-drug resistant ovarian cancer cell line OVCAR-3. […]

[2] = system: CHOP-resistant G3 NHL cells; assay: Cell growth assay (resazurin fluorescence) on G3 cells; assay type: cell-based, human; details: for Magnitude of potentiation in combination with doxorubicin: G3; for Fold increase in potency over DOX alone: lymphoma cell line G3
Experimental: Compositions were tested on CHOP-resistant G3 NHL cells that had been cultivated in RPMI medium for five days. Prior to assay, the cells were counted by haemocytometer and cell concentration standardized to 625,000 cells/ml. Test drugs were solubilized in 100% DMSO and then diluted to final assay concentration with 0.1M phosphate buffered saline (PBS) and a final DMSO concentration of 0.5%. […] The metabolic dye rezasurin was added to the wells of the assay plate at a final concentration of 20 μg/ml and the plates were incubated for an additional 24 hours. The plates were then read in a BMG Polarstar plate reader at wavelength (573-605) and the data plotted as OD versus increasing dilutions (i.e., decreasing total amounts) of rifabutin derivative concentration.
as §1

[3] = system: multi-drug resistant ovarian cancer cell line OVCAR-3; assay: Cell growth assay on OVCAR-3 cells; assay type: cell-based
From the text: (§2) In these experiments, the following cell lines were used: CHOP-resistant NHL cell line G3, CHOP-sensitive NHL cell line CRL2631, the multi-drug resistant sarcoma cell line MES-SA-Dx5; multi-drug-resistant breast cancer cell line MDA-MB-231, multi-drug resistant ovarian carcinoma cell line SK-OV3, multi-drug resistant ovarian cancer cell line NCI/ADR-RES, drug-sensitive ovarian cancer cell line OVCAR-5, and multi-drug resistant ovarian cancer cell line OVCAR-3.
(§3) Additional cell lines used include: ovarian cancer OVCAR-8. T lymphoblastoid leukemia MOLT-4, dexamethasone-resistant multiple myeloma MM.1R, myeloid leukemia cells HL-60, osteosarcoma cells U-2 OS, and myeloma RPMI 8226.

[4] = system: multi-drug-resistant breast cancer cell line MDA-MB-231; assay: Cell growth assay on MDA-MB-231 cells; assay type: cell-based
From the text: as §2, §3

[5] = system: multi-drug resistant ovarian cancer cell line NCI/ADR-RES; assay: Cell growth assay on NCI/ADR-RES cells; assay type: cell-based
From the text: as §2, §3

[6] = system: multi-drug resistant sarcoma cell line MES-SA-Dx5; assay: Cell growth assay on MES-SA-Dx5 cells; assay type: cell-based
From the text: as §2, §3

[7] = system: G3 CHOP-resistant NHL cells; assay: G3 tumor efficacy studies in SCID mice; assay type: in vivo; details: fourth study
Experimental: In a first efficacy study, 6-8 week old female SCID mice (7 mice per treatment arm) were injected subcutaneously on both flanks with 1×10^7 G3 CHOP-resistant NHL cells. Once palpable tumors (about […] size) appeared, therapies (CHOP or CHOP+rifabutin) were started. CHOP was administered at the maximum tolerated dose (cyclophosphamide, 40 mg/kg i.v.; doxorubicin, 3.3 mg/kg i.v.; vincristine, 0.5 mg/kg i.v.; and prednisone, 0.2 mg/kg orally daily for 5 d) weekly for 3 weeks. Rifabutin in an amount of 100 mg/kg was administered on the day of each CHOP treatment and 24-hours later by gavage. Mouse body weight and tumor size were monitored every two days and tumor size measured by caliper. The tumor volume formula (L*W*W)/2 was used to calculate tumor mass.
A second efficacy study was conducted where mice were treated before the appearance of palpable tumors. In that experiment, one week after transplantation of CHOP-resistant G3 cells, one group (7 mice) was treated with CHOP-only and a second group (8 mice) was treated with CHOP+rifabutin.
A third study was conducted in which mice injected with CHOP-resistant G3 cells received reduced dosages of CHOP in combination with 33 mg/kg rifabutin. CHOP+rifabutin was administered weekly beginning one week post-inoculation. Control mice were given no CHOP or rifabutin.
SCID mice were injected with CHOP-resistant G3 cells in the same manner as the first efficacy study above. Treatments began 2 weeks post-inoculation and were administered twice weekly.

[8] = system: total intracellular ROS; assay: Intracellular ROS by CellROX staining and flow cytometry; assay type: cell-based
From the text: Cells were then stained with the fluorescent ROS indicator, CellROX, and subjected to flow cytometry to quantitate total intracellular ROS.
The electron transport chain (ETC) is known to be a primary generator of ROS in the cell. Most of the ROS is generated by Complexes I and III of the ETC. Inhibition of Complex I results in electrons piling up and leaking to react with oxygen to produce ROS.
MDR/P-gp activity is closely associated with calcium status in the cell, so calcium modulators were tested for effects on ROS. […] Relatively Dox-sensitive lymphoma (CRL2631, 10S, WSU) and ovarian carcinoma (OVCAR8) and more Dox-resistant lymphoma (G3R, 10R, WSUR) and ovarian carcinoma (ADR) were treated with 10 uM […] for 2 hrs. […] Cells were co-stained with the cell-permeable red fluorescent ROS indicator, CellROX, and cell-permeable green fluorescent calcium indicator. Fluo-4AM, and then subjected to flow cytometry to quantitate changes in ROS and calcium levels.
All samples were analyzed at the same time in flow cytometry.

[9] = Dox-resistant G3 lymphoma cells, FIG. 40

| Compound | Magnitude of potentiation in combination with doxorubicin [1] | Magnitude of potentiation in combination with doxorubicin [2] | Fold increase in potency over DOX alone [2] | Magnitude of potentiation in combination with doxorubicin [3] | also measured |
| --- | --- | --- | --- | --- | --- |
| 4-deoxy-3,4[2-spiro-[1-(isobutylaminocarbonyl)-piperidin-4-yl]]-(1H)-imidazo-(2,5-dihydro)rifamycin S [RTI-102] | +++ (+++ potentiation greater than 5 fold increase) | ++ (++ potentiation between 2.1 to 5 fold increase) | – | – | – |
| 4-deoxy-3,4[2-spiro-[1-(n-propyloxycarbonyl)-piperidin-4-yl]]-(1H)-imidazo-(2,5-dihydro)rifamycin S [RTI-78] | – | – | 29.5 fold | – | – |
| 11-deoxy-11-amino-4-deoxy-3,4[2-spiro-[1-(isobutylaminocarbonyl)-piperidin-4-yl]]-(1H)-imidazo-(2,5-dihydro)rifamycin S [RTI-183] | – | – | 0.5 fold | + (+ potentiation between 1.2 to 2.0 fold increase) | – |
| 11-deoxy-11-imino-4-deoxy-3,4[2-spiro-[1-(2-methoxyethyl)-piperidin-4-yl]]-(1H)-imidazo-(2,5-dihydro)rifamycin S [RTI-51] | + (+ potentiation between 1.2 to 2.0 fold increase) | – | 0.7 fold | + (+ potentiation between 1.2 to 2.0 fold increase) | – |
| 11-deoxy-11-imino-4-deoxy-3,4[2-spiro-[1-(2-morpholinoethyl)-piperidin-4-yl]]-(1H)-imidazo-(2,5-dihydro)rifamycin S [RTI-53] | + (+ potentiation between 1.2 to 2.0 fold increase) | – | 0.2 fold | + (+ potentiation between 1.2 to 2.0 fold increase) | – |
| 11-deoxy-11-imino-4-deoxy-3,4[2-spiro-[1-(isobutylaminocarbonyl)-piperidin-4-yl]]-(1H)-imidazo-(2,5-dihydro)rifamycin S [RTI-182] | ++ (++ potentiation between 2.1 to 5 fold increase) | + (+ potentiation between 1.2 to 2.0 fold increase) | 2.0 fold | + (+ potentiation between 1.2 to 2.0 fold increase) | Magnitude of potentiation in combination with doxorubicin [4]: ++ (++ potentiation between 2.1 to 5 fold increase) |
| 11-deoxy-11-imino-4-deoxy-3,4[2-spiro-[1-(isobutyloxycarbonyl)-piperidin-4-yl]]-(1H)-imidazo-(2,5-dihydro)rifamycin S [RTI-81] | +++ (+++ potentiation greater than 5 fold increase) | +++ (+++ potentiation greater than 5 fold increase) | – | – | Magnitude of potentiation in combination with doxorubicin [5]: + (+ potentiation between 1.2 to 2.0 fold increase); Magnitude of potentiation in combination with doxorubicin [6]: ++ (++ potentiation between 2.1 to 5 fold increase); Longer life than doxorubicin only ([7]; DOX 3.3 mg/kg iv + RTI-81 10 mg/kg by gavage twice weekly): 27%; Mean lifespan ([7]; doxorubicin+RTI-81 group): 42.6; Median lifespan ([7]; doxorubicin+RTI-81 group): 42 |
| O=c1[nH]c2ccccc2n1C1CCN(Cc2ccc(-c3nc4cc5[nH]cnc5cc4nc3-c3ccccc3)cc2)CC1 [Akt Inhibitor VIII, reference compound] | – | – | – | – | Reversal of CHOP resistance ([2]; G3 cells, FIG. 30B): dose-dependent reversal of CHOP resistance |
| CC(=O)OCOC(=O)CN(CC(=O)OCOC(C)=O)c1ccccc1OCCOc1ccccc1N(CC(=O)OCOC(C)=O)CC(=O)OCOC(C)=O [BAPTA-AM] | – | – | – | – | Induction of ROS [8, 9]: induced ROS |
| CCNC(=O)N1CCC2(CC1)N=c1c3c(O)c4c(O)c(C)c5c(c4c1=N2)C(=N)[C@@](C)(O/C=C/[C@H](OC)[C@@H](C)[C@@H](OC(C)=O)[C@H](C)[C@H](O)[C@H](C)[C@@H](O)[C@@H](C)/C=C/C=C(/C)C(=O)N3)O5 [RTI-82, 11-deoxy-11-imino-4-deoxy-3,4[2-spiro-[1-(ethylaminocarbonyl)-piperidin-4-yl]]-(1H)-imidazo-(2,5-dihydro)rifamycin S] | – | – | 0.7 fold | – | Magnitude of potentiation in combination with doxorubicin [4]: +++ (+++ potentiation greater than 5 fold increase) |
| CO[C@H]1/C=C/O[C@@]2(C)Oc3c(C)c(O)c4c(O)c(c5c(c4c3C2O)=NC2(CCN(CC(C)C)CC2)N=5)NC(=O)/C(C)=C\C=C\[C@H](C)[C@H](O)[C@@H](C)[C@@H](O)[C@@H](C)[C@H](OC(C)=O)[C@@H]1C (stereo partly drawn) [RTI-174, 11-deoxy-11-hydroxy-4-deoxy-3,4[2-spiro-[1-(2-methylpropyl)-piperidin-4-yl]]-(1H)-imidazo-(2,5-dihydro)rifamycin S] | + (+ potentiation between 1.2 to 2.0 fold increase) | ++ (++ potentiation between 2.1 to 5 fold increase) | – | + (+ potentiation between 1.2 to 2.0 fold increase) | Magnitude of potentiation in combination with doxorubicin [5]: + (+ potentiation between 1.2 to 2.0 fold increase) |
| COC1C=COC2(C)Oc3c(C)c(O)c4c(c3C2N)C2=NC3(CCN(CC(C)C)CC3)NC2=C(NC(=O)C(C)=CC=CC(C)C(O)C(C)C(O)C(C)C(OC(C)=O)C1C)C4=O (stereo not drawn) [RTI-181, 11-deoxy-11-amino-4-deoxy-3,4[2-spiro-[1-(2-methylpropyl)-piperidin-4-yl]]-(1H)-imidazo-(2,5-dihydro)rifamycin S] | +++ (+++ potentiation greater than 5 fold increase) | +++ (+++ potentiation greater than 5 fold increase) | 5.5 fold | + (+ potentiation between 1.2 to 2.0 fold increase) | – |
| C=C(C)[C@H]1Cc2c(ccc3c2O[C@@H]2COc4cc(OC)c(OC)cc4[C@@H]2C3=O)O1 [Rotenone] | – | – | – | – | Induction of ROS [8, 9]: induced ROS |
| COC(=O)[C@H]1[C@H]2C[C@@H]3c4[nH]c5cc(OC)ccc5c4CCN3C[C@H]2C[C@@H](OC(=O)c2cc(OC)c(OC)c(OC)c2)[C@@H]1OC [reserpine] | – | – | – | – | Induction of ROS relative to control drugs ([8]; ADR and OVCAR8 cells, FIG. 41A): induced ROS; Induction of ROS ([8]; OVCAR8, ADR-RES and G3 cells, 2 hrs, 10 uM, FIG. 38): induced ROS |
| antimycin A | – | – | – | – | Induction of ROS [8, 9]: not |
